Assay results published in patent US20240124467A1, “FUSED PYRIMIDINE COMPOUNDS AS INHIBITORS OF MENIN-MLL INTERACTION” (Biomea Fusion, Inc., priority 2020, published 2024).

Experiments:
Type in all cases: cell-based
K-562 = test: Cell proliferation inhibition (CellTiter-Glo), K-562 cells; conditions: Homo sapiens, K562, 96 h; K-562 (BCR-ABL), Day 4; read-out: K-562 IC50 μM (Day 4)
Protocol: (§1) The present example evaluates the ability of compounds described herein, inhibitors of Menin/MLL interaction, to inhibit cell proliferation. The proliferation inhibitory effect was investigated in human MLL-leukemia cells selected on the bases of MLL fusion proteins and listed in the table below.
(§2) ATP is present in all metabolically active cells and is considered as a marker for cell viability and proliferation. The metabolic cell activity was determined using the CellTiter-Glo kit from Promega, an ATP monitoring system based on the production of luminescence by the reaction of ATP with added UltraGlo® recombinant luciferase (Kawano et al., 2016, PLOS One, 8:11(7):e0158888), according to the supplier's experimental recommendations. The assay is based on a 96 well plate format. All experiments were carried out in duplicate in one test occasion.
(§3) Test items were dissolved at 20 mM in DMSO with purity ≥99.9% (Sigma catalog no. D8418) and stored at −20° C. Cells were maintained in RPMI-1640 medium (Invitrogen catalog no. 618700) supplemented with 10% of Heat Inactivated FBS (Invitrogen catalog no. 10500) and 1% Pen-Strep (Invitrogen catalog no. 15140) and cultured at 37° C. in a humidified incubator with 5% CO2. Cell lines were grown in suspension and the cell density was maintained in a range of 5×10^4-1×10^6 viable cells/ml where possible. Cells were pelleted at 130 g×5 min.
(§4) Serial dilutions of compounds 1 to 3 in DMSO 100% were prepared starting from a 2.5 mM solutions (prepared by diluting 1:8 the 20 mM stock solution) to generate a 7 point concentration response curve (CRC). Seven concentrations of test compounds (e.g., 5.00×10^−6-1.67×10^−6-5.56×10^−7-1.85×10^−7-6.17×10^−8-2.06×10^−8-6.86×10^−9 M) were assessed in duplicate in an individual test occasion in parallel in the selected cell lines. KO-539 was used as a reference compound and tested in duplicate at seven similar concentrations. 100% of proliferation was represented by the untreated cells (0.2% DMSO).
(§5) Cell proliferation inhibition was monitored at both the following end points: Day 4 (T4) and Day 7 (T7). For the appropriate cell density during the exponential cell growth and re-supply with fresh compound solution at T4, cells were diluted (1:4) with fresh medium containing the compound concentration (1×).
(§6) For each plate to test, one 0.4 μL copy plate and four 0.3 μL copy plates were stamped into 96-well plates not treated for cell adhesion (Sarstedt—cat. no. 82.1581.001) by acoustic liquid handling (Echo) at a concentration which was 500 fold the final assay concentration. Stamped plates were stored at −20° C.
(§7) On Day 0, the day of the experiment cell line suspensions were counted by Cell Viability Analyser, Vi-CELL (Beckman Coulter AY15292), and diluted with fresh medium to obtain the following cell densities: K-562 500 c/ml, MOLM-13 1,000 c/ml, MV4-11 10,000 c/ml, OCI-AML-3 500 c/ml, and U-937 500-1,000 c/ml. 200 μL/well and 150 μL/well of cell suspension were added into the 0.4 μL/well and 0.3 μL/well compound plates, respectively. Cell plate containing 200 μL/well suspension were incubated at 37° C. in a humidified incubator with 5% CO2. From each well of the 150 μL/well cell assay plate, 100 μL were harvested and transferred into a 96-well Optiplate (Perkin Elmer, cat. no. 6005290). Cell viability was measured as described below.
(§8) On Day 4, 150p/well of fresh medium was added into a new 0.3 μL/well copy compound plates. From each well of the 200 μL/well cell assay plate, 100 μL was sampled for the cell viability measurement as described below. 50p was harvested and added to the 150p/well compound plate prepared as described in the first point to dilute 1:4 the cell suspension. The cell assay plate diluted and containing 200 μL/well suspension was incubated at 37° C. in a humidified incubator with 5% CO2.
(§9) On Day 4, 150p/well of fresh medium was added into a new 0.3 μL/well copy compound plates. […]

MV4-11 = test: Cell proliferation inhibition (CellTiter-Glo), MV4-11 cells; conditions: Homo sapiens, 96 h; MV4-11 (MLL-AF4), Day 4; read-out: MV-4:11 IC50 μM (Day 4)*
Protocol: as §1, §2, §3, §4, §5, §6, §7, §8, §9

MOLM-13 = test: Cell proliferation inhibition (CellTiter-Glo), MOLM-13 cells; conditions: Homo sapiens, 96 h; MOLM-13 (MLL-AF9), Day 4; read-out: MOLM-13 Day IC50 μM (Day 4)*
Protocol: as §1, §2, §3, §4, §5, §6, §7, §8, §9

SMILES	IC50 (K-562) [µM]	IC50 (MV4-11) [µM]	IC50 (MOLM-13) [µM]
C=CC(=O)N[C@@H]1CCCN(Cc2ccc(F)c(C(=O)Nc3ccc(-c4cc5c(N6CCOCC6)ncnc5[nH]4)cc3)c2)C1 [Compound B0700-530]	0.616	0.314	0.28
C=CC(=O)N[C@@H]1CCCN(Cc2ccc(C)c(C(=O)Nc3ccc(-c4cc5c(N6CCOCC6)ncnc5[nH]4)cc3)c2)C1 [Compound B0700-531]	0.805	0.345	0.311
C=CC(=O)N[C@@H]1CCCN(Cc2cccc(S(=O)(=O)Nc3ccc(-c4nc5c(N6CCOCC6)ncnc5s4)cc3)c2)C1 [Compound B0700-532, (R)—N-(1-(3-(N-(4-(7-morpholinothiazolo[5,4-d]pyrimidin-2-yl)phenyl)sulfamoyl)benzyl)piperidin-3-yl)acrylamide]	> 10	> 10	> 10
C=CC(=O)N[C@@H]1CCCN(Cc2cccc(S(=O)(=O)NC3CCN(c4nc5c(N6CCOCC6)ncnc5s4)CC3)c2)C1 [Compound B0700-533]	> 10	> 10	> 10
C=CC(=O)N[C@@H]1CCCN(Cc2cccc(S(=O)(=O)Nc3ccc(-c4nc5c(N6CCOCC6)ncnc5s4)nc3)c2)C1 [Compound B0700-534, (R)—N-(1-(3-(N-(6-(7-morpholinothiazolo[5,4-d]pyrimidin-2-yl)pyridin-3-yl)sulfamoyl)benzyl)piperidin-3-yl)acrylamide]	> 10	> 10	> 10
C=CC(=O)N[C@@H]1CCN(c2cccc(CS(=O)(=O)Nc3ccc(-c4cc5c(N6CCOCC6)ncnc5[nH]4)cc3)c2)C1 [Compound B0700-535, (R)—N-(1-(3-((N-(4-(4-morpholino-7H-pyrrolo[2,3-d]pyrimidin-6-yl)phenyl)sulfamoyl)methyl)phenyl)pyrrolidin-3-yl)acrylamide]	7.05	> 10	0.184
C=CC(=O)N[C@H]1CCN(c2cccc(CS(=O)(=O)Nc3ccc(-c4cc5c(N6CCOCC6)ncnc5[nH]4)cn3)c2)C1 [Compound B0700-536]	> 10	3.88	5.68
C=CC(=O)N[C@H]1CCN(c2cccc(CS(=O)(=O)NC3CCN(c4nc5c(N6CCOCC6)ncnc5s4)CC3)c2)C1 [Compound B0700-537]	> 10	> 10	> 10
C=CC(=O)N[C@@H]1CCCN(c2cccc(CS(=O)(=O)Nc3ccc(-c4cc5c(N6CCOCC6)ncnc5[nH]4)cc3)c2)C1 [Compound B0700-539]	> 10	0.436	0.374
C=CC(=O)N[C@H]1CCCN(c2cccc(CS(=O)(=O)Nc3ccc(-c4cc5c(N6CCOCC6)ncnc5[nH]4)cc3)c2)C1 [Compound B0700-540]	> 10	0.148	0.329
C=CS(=O)(=O)N[C@H]1CCN(c2cccc(CS(=O)(=O)Nc3ccc(-c4cc5c(N6CCOCC6)ncnc5[nH]4)cc3)c2)C1 [Compound B0700-541]	2.06	0.09	0.193
C=CS(=O)(=O)N[C@@H]1CCCN(c2cccc(CS(=O)(=O)Nc3ccc(-c4cc5c(N6CCOCC6)ncnc5[nH]4)cc3)c2)C1 [Compound B0700-542, (R)—N-(1-(3-((N-(4-(4-morpholino-7H-pyrrolo[2,3-d]pyrimidin-6-yl)phenyl)sulfamoyl)methyl)phenyl)piperidin-3-yl)ethenesulfonamide]	3.3	0.322	0.48
C=CC(=O)N[C@H]1CCN(c2cccc(C(C)S(=O)(=O)Nc3ccc(-c4cc5c(N6CCOCC6)ncnc5[nH]4)cc3)c2)C1 (stereo partly drawn) [Compound B0700-543]	9.07	0.073	0.158
C=CC(=O)N[C@@H]1CCCN(c2cccc(C(C)S(=O)(=O)Nc3ccc(-c4cc5c(N6CCOCC6)ncnc5[nH]4)cc3)c2)C1 (stereo partly drawn) [Compound B0700-545]	> 10	0.84	1.07
